Reference: patent publication US10568834B2, “Delivery systems for propofol” (Yissum Research Development Company of the Hebrew …, priority 2015, dated 2020)

Tests used:
[1] = Self-diffusion NMR (SD-NMR); type: physicochemical; details: for Diffusion coefficient of EtOH / Diffusion coefficient of PEG400 / Diffusion coefficient of PG / Diffusion coefficient of Solutol / Diffusion coefficient of the Loaded specie: B9A loaded with 1 wt % of the specie
Experimental: In order to determine the structure of the oil droplets (or micelles) of the microemulsions, self-diffusion NMR analysis was carried out. SD-NMR is able to locate each component within the microemulsion via measurements of its diffusion coefficient.
NMR measurements were performed with a Bruker AVII 500 spectrometer equipped with GREAT 1/10 gradients, a 5 mm BBO and a 5 mm BBI probe, both with a z-gradient coil and with a maximum gradient strength of 0.509 and 0.544 T m^−1, respectively. Diffusion was measured using an asymmetric bipolar longitudinal eddy-current delay (bpLED) experiment, or and asymmetric bipolar stimulated echo (known as one-shot) experiment with convection compensation and an asymmetry factor of 20%, ramping the strongest gradient from 2% to 95% of maximum strength in 32 steps. The spectrum was processed with the Bruker TOPSPIN software. NMR spectra were recorded at 25±0.2° C. The components were identified by their chemical shift in 1H NMR.

[2] = Microemulsion formation/appearance with propofol-like species or another surfactant; type: physicochemical; details: B9A loaded with 1 wt % of the specie, FIGS. 5A-5D
Experimental: The relationship between the surfactant and the propofol with respect to binding in the microemulsion-composition was assessed by loading B9A with 1 wt % of species similar in their structure to propofol.

[3] = B6A microemulsion, Loaded (1 wt % propofol)
[4] = B9A microemulsion, Loaded (1 wt % propofol)
[5] = Formulation with Tween 80, Loaded
[6] = Formulation with Tween 80, Unloaded
[7] = Formulation with Tween 60, Loaded
[8] = Formulation with Tween 60, Unloaded

Row | Compound | Diffusion coefficient of EtOH [1] | Diffusion coefficient of PEG400 [1] | Diffusion coefficient of PG [1] | Diffusion coefficient of Solutol [1] | Diffusion coefficient of the Loaded specie [1] | Diffusion coefficient of the component [1, 3] | Diffusion coefficient of the component [1, 4] | further results
1 | Cc1cc(C(C)(C)C)c(O)c(C(C)(C)C)c1 [drawing 5] | 98.2 ×10^−11 m^2/sec | 24.3 ×10^−11 m^2/sec | 79.1 ×10^−11 m^2/sec | 1.75 ×10^−11 m^2/sec | 1.58 ×10^−11 m^2/sec | – | – | –
2 | CC(C)c1cccc(C(C)C)c1N | 94.6 ×10^−11 m^2/sec | 26.2 ×10^−11 m^2/sec | 44.8 ×10^−11 m^2/sec | 1.76 ×10^−11 m^2/sec | 2.15 ×10^−11 m^2/sec | – | – | –
3 | CC(C)(C)c1cc(O)ccc1O [TBHQ] | – | – | – | – | – | – | – | Appearance of the system loaded with the specie [2]: classic milky emulsion
4 | CCO [Ethanol, ethanol] | – | – | – | – | – | 6.91 × 10^−10 m^2/sec | 9.82 × 10^−10 m^2/sec | Diffusion coefficient of the component ([1]; B6A microemulsion, Unloaded): 8.83 × 10^−10 m^2/sec; Diffusion coefficient of the component ([1]; B9A microemulsion, Unloaded): 7.65 × 10^−10 m^2/sec
5 | polysorbate 80 [Tween 80] | – | – | – | – | – | – | – | Diffusion coefficient of the component [1, 5]: 2.08 × 10^−11 m^2/sec; Diffusion coefficient of the component [1, 6]: 1.73 × 10^−11 m^2/sec
6 | CC(C)c1cccc(C(C)C)c1O [Propofol, 2,6-diisopropyl phenol] | 98.2 ×10^−11 m^2/sec | 26.3 ×10^−11 m^2/sec | 84.5 ×10^−11 m^2/sec | 1.50 ×10^−11 m^2/sec | 1.54 ×10^−11 m^2/sec | 1.02 × 10^−11 m^2/sec | 1.54 × 10^−11 m^2/sec | Diffusion coefficient of the component [1, 7]: 1.04 × 10^−11 m^2/sec; Diffusion coefficient of the component [1, 5]: 1.73 × 10^−11 m^2/sec
7 | CC(C)c1ccc(O)c(C(C)C)c1 [drawing 3] | 96.6 ×10^−11 m^2/sec | 26.3 ×10^−11 m^2/sec | 73.6 ×10^−11 m^2/sec | 1.63 ×10^−11 m^2/sec | 1.75 ×10^−11 m^2/sec | – | – | –
8 | CC(C)c1ccc(O)c(C(C)C)c1 [2,4-isomer] | – | – | – | – | – | – | – | Appearance of the system loaded with the specie [2]: not completely transparent
9 | Cc1cc(C(C)(C)C)c(O)c(C(C)(C)C)c1 [BHT] | – | – | – | – | – | – | – | Appearance of the system loaded with the specie [2]: not completely transparent
10 | COc1ccc(O)c(C(C)(C)C)c1 [drawing 4] | 91.2 ×10^−11 m^2/sec | 24.5 ×10^−11 m^2/sec | 78.3 ×10^−11 m^2/sec | 1.75 ×10^−11 m^2/sec | 1.78 ×10^−11 m^2/sec | – | – | –
11 | CC(O)CO (stereo not shown) [Propylene glycol, propylene glycol] | – | – | – | – | – | 5.22 × 10^−10 m^2/sec | 8.45 × 10^−10 m^2/sec | Diffusion coefficient of the component ([1]; B6A microemulsion, Unloaded): 6.68 × 10^−10 m^2/sec; Diffusion coefficient of the component ([1]; B9A microemulsion, Unloaded): 5.96 × 10^−10 m^2/sec; Diffusion coefficient of the component [1, 7]: 3.24 × 10^−10 m^2/sec; Diffusion coefficient of the component [1, 8]: 4.96 × 10^−10 m^2/sec; Diffusion coefficient of the component [1, 5]: 4.82 × 10^−10 m^2/sec; Diffusion coefficient of the component [1, 6]: 5.43 × 10^−10 m^2/sec
12 | COc1ccc(O)c(C(C)(C)C)c1 [BHA] | – | – | – | – | – | – | – | Appearance of the system loaded with the specie [2]: not completely transparent
13 | polysorbate 60 [Tween 60] | – | – | – | – | – | – | – | Diffusion coefficient of the component [1, 7]: 1.63 × 10^−11 m^2/sec; Diffusion coefficient of the component [1, 8]: 0.92 × 10^−11 m^2/sec
14 | O [Water, water] | – | – | – | – | – | 1.37 × 10^−9 m^2/sec | 1.62 × 10^−9 m^2/sec | Diffusion coefficient of the component ([1]; B6A microemulsion, Unloaded): 1.76 × 10^−9 m^2/sec; Diffusion coefficient of the component ([1]; B9A microemulsion, Unloaded): 1.52 × 10^−9 m^2/sec; Diffusion coefficient of the component [1, 7]: 1.12 × 10^−9 m^2/sec; Diffusion coefficient of the component [1, 8]: 1.86 × 10^−9 m^2/sec; Diffusion coefficient of the component [1, 5]: 1.24 × 10^−9 m^2/sec; Diffusion coefficient of the component [1, 6]: 1.91 × 10^−9 m^2/sec
15 | polyethylene glycol 15-hydroxystearate [Solutol] | – | – | – | – | – | 1.62 × 10^−11 m^2/sec | 1.50 × 10^−11 m^2/sec | Diffusion coefficient of the component ([1]; B6A microemulsion, Unloaded): 1.45 × 10^−11 m^2/sec; Diffusion coefficient of the component ([1]; B9A microemulsion, Unloaded): 1.94 × 10^−11 m^2/sec
